Reference: PubChem BioAssay (NCI)
Several values for one entry are separate records, joined by “and”; a condition that tells them apart may be missing. Identical values can stand only once.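 Test compounds were applied to cells in 96-well plates for 48 hours at 5 doses. Abbreviation: GI50, concentration required for 50% inhibition of growth. TGI marks complete inhibition of growth.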

What was measured:
Test in all cases: NCI anticancer screen, dose series, 48 h
UACC-257 melanoma = test system: UACC-257 melanoma
LOX IMVI melanoma = test system: LOX IMVI melanoma
DU-145 prostate = test system: DU-145 prostate
BT-549 breast = test system: BT-549 breast
RXF 393 renal = test system: RXF 393 renal
M14 melanoma = test system: M14 melanoma
SK-MEL-2 melanoma = test system: SK-MEL-2 melanoma
HS 578T breast = test system: HS 578T breast
EKVX NSCLC = test system: EKVX NSCLC
MDA-MB-231 breast = test system: MDA-MB-231 breast

| Compound | GI50 (UACC-257 melanoma) [µM] | TGI (UACC-257 melanoma) | GI50 (LOX IMVI melanoma) [µM] | TGI (LOX IMVI melanoma) [µM] | GI50 (DU-145 prostate) [µM] | TGI (DU-145 prostate) [µM] | GI50 (BT-549 breast) [µM] | TGI (BT-549 breast) [µM] | GI50 (RXF 393 renal) [µM] | TGI (RXF 393 renal) | GI50 (M14 melanoma) [µM] | TGI (M14 melanoma) | GI50 (SK-MEL-2 melanoma) [µM] | TGI (SK-MEL-2 melanoma) | GI50 (HS 578T breast) [µM] | TGI (HS 578T breast) [µM] | GI50 (EKVX NSCLC) [µM] | TGI (EKVX NSCLC) | GI50 (MDA-MB-231 breast) [µM] | TGI (MDA-MB-231 breast) [µM] |
| --- | --- | --- | --- | --- | --- | --- | --- | --- | --- | --- | --- | --- | --- | --- | --- | --- | --- | --- | --- | --- |
| COc1cc2nc(-c3cnc(N(C)C)nc3)nc(NC3CCN(Cc4ccccc4)CC3)c2cc1OC | 1.79 | 3.66 µM | 1.52 | 3.2 | 1.57 | 3.05 | 1.71 | 3.43 | 1.63 | 3.49 µM | 1.5 | 3.06 µM | 1.8 | 3.45 µM | 1.71 | 3.99 | 1.75 | 3.66 µM | 1.57 | 3.4 |
| Cc1cc(N2CCCCC2)nc(N(CCCNc2ccnc3cc(Cl)ccc23)Cc2ccco2)n1 | 2.35 | 5.21 µM | 1.24 | 2.65 | 3.14 | 12.9 | 2.65 | 8.54 | 1.52 | 3.44 µM | 1.64 | 3.4 µM | 2.4 | 6.25 µM | 3.02 | 11.4 | 2.42 | 11.7 µM | 1.73 | 4.24 |
| O=c1c2cccc(Cl)c2sc2c(NCCCNCCO)nc3ccccc3c12 | 10.4 | 28 µM | 1.41 | 2.77 | 1.98 | 4.85 | 14.8 | 30.6 | 1.69 | 4 µM | 1.79 | 3.54 µM | 10.9 | 26.3 µM | 2.95 | 14.8 | 3.4 | 17.5 µM | 1.4 | 3.54 |
| Cn1ccnc1C(=O)/C=C/c1ccc(C(=O)Nc2ccc(Cl)cc2)cc1 | 2.48 | > 33.3 µM | 0.686 | 1.56 | 1.32 | > 33.3 | 0.958 | 7.72 | 0.836 | 2.66 µM | 0.968 | 4.96 µM | 7.68 | > 33.3 µM | 0.919 | > 33.3 | 2.34 | 22 µM | 1.2 | 16.7 |
| CCN(CC)CCCC(C)Nc1cnc(C(=O)Nc2ccc(Cl)c3cccnc23)cn1 (stereo not given) | 2.91 | 7.96 µM | 1.78 | 3.3 | 4.12 | 15.8 | 1.59 | 3.08 | 1.64 | 3.36 µM | 1.79 | 3.59 µM | 1.95 | 4.34 µM | 3.06 | 13 | 3.98 | 17.2 µM | 1.68 | 3.76 |
| O=[N+]([O-])c1ccc(Br)c([N+](=O)[O-])c1 | 1.86 | 3.37 µM | 1.67 | 3.38 | 1.72 | 3.12 | 5.32 | 10.9 | 1.83 | 3.36 µM | 1.74 | 3.27 µM | 3.23 | 10.3 µM | 1.98 | 4.97 | 1.84 | 4 µM | 2.68 | 7.12 |
| Oc1ccc2cc(Br)ccc2c1-c1c(O)ccc2cc(Br)ccc12 | 10.1 | 22.6 µM | 1.81 | 3.41 | 3.29 | 9.34 | 3.86 | 12.4 | 2.79 | 5.93 µM | 3.91 | 14 µM | 3.82 | 13.5 µM | 3.7 | 23.3 | 3.54 | 13.5 µM | 1.76 | 4.55 |
| O=C1NN(c2ccc(C(=O)O)cc2)C(=O)/C1=C\c1ccc([N+](=O)[O-])o1 | > 100 | > 100 µM | 11.1 | 31.2 | 85.6 | > 100 | > 100 | > 100 | 40.7 | > 100 µM | 28.6 | 88 µM | 83.1 | > 100 µM | > 100 | > 100 | > 100 | > 100 µM | 58.5 | > 100 |
| CC1=C(C(=O)Nc2ccc(F)c(Cl)c2)C(c2ccccc2Cl)NC(=S)N1 (stereo not given) | 19.7 | 49.7 µM | 15.1 | > 50 | > 50 | > 50 | > 50 | > 50 | 16.9 | 37.7 µM | 34.9 | > 50 µM | 26.8 | > 50 µM | > 50 | > 50 | > 50 | > 50 µM | 19.6 | > 50 |
| COC(=O)NC1C(C)OC(OC2C/C=C(/C)C3C=CC4C(OC5CC(OC6CC(O)C(OC7CC(O)C(OC)C(C)O7)C(C)O6)C(O)C(C)O5)C(C)CC(C)C4C3(C)/C(O)=C3\C(=O)OC4(CC(C)C(CO)=CC4/C=C\2C)C3=O)CC1(C)[N+](=O)[O-] (stereo not given) | 8.28 | 16.4 µM and 29.4 µM |  | 28 |  | 27.5 |  | 41.4 | 8.97 | 21.4 µM and 30.7 µM | 16.9 | 17.2 µM and 32.7 µM | 9.66 | 17.4 µM and 29.6 µM |  | 40.4 | 16.7 | 50 µM and 19.3 µM |  | 36 |
| C=C1C(=O)O[C@H]2[C@H]1CC/C(COC(=O)CCCCC(=O)OC/C1=C/CC[C@@]3(C)O[C@H]3[C@H]3OC(=O)C(=C)[C@@H]3CC1)=C\CC[C@@]1(C)O[C@@H]21 | 1.82 | 4.4 µM | 1.45 | 2.9 | 3.09 | > 100 | 1.37 | 3.36 | 0.967 | 2.31 µM | 1.95 | 5.31 µM | 3.39 | 75.6 µM | 1.97 | 8.46 | 2.83 | > 100 µM | 1.66 | 3.57 |
| CC[C@@H](C(=O)[C@@H](C)[C@@H](O)[C@H](C)[C@@H]1O[C@@H]([C@@H](CC)C(=O)O)CC[C@@H]1C)C1O[C@]2(C=CC(=O)[C@]3(CC[C@@](C)([C@H]4CC[C@](O)(CC)[C@H](C)O4)O3)O2)[C@H](C)C[C@@H]1C (stereo not given in full) | 0.169 | 16.7 µM | 0.71 | 13.8 | 1.43 | 18 | 0.22 | 13.1 | 0.0416 | 1.79 µM | 1.41 | 3.53 µM | 1.04 | 7.03 µM | 0.183 | 14.9 | 0.538 | 18.7 µM | 0.854 | 6.01 |
| COC(=O)Nc1nc2ccc(Oc3ccc(NC(=O)Nc4cccc(C(=O)O)c4)cc3)cc2[nH]1 | > 22.2 | > 25 µM | > 14.6 | > 25 | 8.07 | > 25 | 14.8 | > 25 | 3.37 | 10.9 µM | 6.75 | > 25 µM | 9.24 | > 25 µM | 4.28 | 24.5 | > 23 | > 25 µM | 11.5 | > 25 |
| COc1cc(C(=O)c2ccc3c(c2)OCO3)cc(OC)c1OC | > 100 | > 100 µM | 6.69 | > 100 | 3.51 | > 65.7 | 7.09 | > 100 | 2.88 | 17.1 µM | 1.2 | > 100 µM | 2.53 | > 100 µM | 2.54 | > 26.9 | 3.77 | > 100 µM | 8.65 | > 100 |
| CC1=C[C@H]2c3c(c(O)c(O)c4oc5c(C)cccc5c(=O)c34)[C@H](c3cc(O)c(O)c4oc5c(C)cccc5c(=O)c34)[C@H]2C(C)(C)C1 | 2.54 | 8.34 µM | 0.966 | 2.22 | 3.13 | 14.9 | 1.9 | 5.04 | 1.22 | 3.26 µM | 1.52 | 5.87 µM | 2.05 | 5.1 µM | 1.93 | 9.19 | 2.34 | 11 µM | 2.88 | 14.6 |
| c1ccc(Cn2cc3c(c2-c2ccccc2)CCc2cnoc2-3)cc1 | 17.7 | > 100 µM | 4.23 | > 100 | 20.1 | > 100 | 6.63 | 56.1 | 4.94 | 61.2 µM | 4.89 | > 100 µM | 11.5 | > 100 µM | 3.88 | 26.4 | 5.53 | > 100 µM | 5.68 | > 100 |
| CCC(C)(C)C(=O)O[C@H]1C[C@@H](C)C=C2C=C[C@H](C)[C@H](CC[C@@H]3C[C@@H](O)CC(=O)O3)[C@H]21 | 10.8 | 25 µM and > 30 µM | 0.39 | 6.43 | 12.1 | 24.6 | 4.61 | 18.2 | 2.06 | 8.5 µM and 2.48 µM | 2.89 | 16.7 µM and 8.09 µM | 0.765 | 5.92 µM and 1.81 µM | 2.7 | 16.4 | 2.78 | 19.3 µM and > 30 µM | 0.224 | 0.732 |
